Laboratory results taken from US20250136606A1, “MODULATORS OF TRPML, THEIR COMPOSITIONS AND METHODS OF USE” (Caraway Therapeutics, Inc., priority 2021, published 2025).

Assays:
Format in all cases: cell-based
Conditions in all cases: fluorescent calcium assay
TRPML1 = TRPML1 (Homo sapiens, UniProt Q9GZU1); test: Fluorescent TRPML1 assay (Fluo4-AM calcium fluorescence in doxycycline-induced HEK-293 Trex cells)
Outline: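 EC50 values come from non-linear regression of percent activity, normalized to on-plate positive and negative controls, with fluorescence read at 480 nm excitation and 540 nm emission. Fluo4-AM-loaded (1 µM) doxycycline-induced HEK-293 Trex cells expressing mutated human TRPML1 were exposed in 10 mM calcium Ringer's to 6 nM–20 µM compound, in triplicate.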

TRPML2 = biological target: T1, TRPML2 (Homo sapiens, UniProt Q8IZK6); test: Fluorescent TRPML2 assay (performed as for TRPML1, substituting the TRPML2 subtype)
T1 construct: expressed in transfected cells
T1 sequence (Q8IZK6 1-566): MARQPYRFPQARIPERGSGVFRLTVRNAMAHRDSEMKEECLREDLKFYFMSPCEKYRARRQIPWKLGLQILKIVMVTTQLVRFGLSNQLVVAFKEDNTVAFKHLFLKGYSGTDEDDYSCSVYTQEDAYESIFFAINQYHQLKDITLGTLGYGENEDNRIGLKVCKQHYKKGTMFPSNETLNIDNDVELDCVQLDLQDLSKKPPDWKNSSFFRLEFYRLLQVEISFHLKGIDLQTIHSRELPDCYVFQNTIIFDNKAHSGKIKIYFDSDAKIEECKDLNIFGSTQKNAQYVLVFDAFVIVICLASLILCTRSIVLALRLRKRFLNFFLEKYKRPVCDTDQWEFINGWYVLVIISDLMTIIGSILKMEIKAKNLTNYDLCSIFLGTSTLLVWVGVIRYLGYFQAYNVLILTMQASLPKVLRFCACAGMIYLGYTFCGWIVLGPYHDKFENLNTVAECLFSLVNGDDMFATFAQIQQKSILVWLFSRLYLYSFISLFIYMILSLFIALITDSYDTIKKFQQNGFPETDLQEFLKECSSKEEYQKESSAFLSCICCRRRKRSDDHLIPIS
Outline: (§1)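 HEK-293 Trex, dox-induced (0.5 ug/mL), mutated for surface expression. Fluo4-AM 1 micromolar load ~60 min, dark; buffer modified Ringer's, 10 mM Ca. Cpds 20 micromolar–6 nanomolar final, half-log, n=3. Read ex 480/em 540; % activity vs controls; EC50 nonlinear fit.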

TRPML3 = biological target: T2, TRPML3 (Homo sapiens, UniProt Q8TDD5); test: Fluorescent TRPML3 assay (performed as for TRPML1, substituting the TRPML3 subtype)
T2 construct: expressed in transfected cells
T2 sequence (Q8TDD5 1-553): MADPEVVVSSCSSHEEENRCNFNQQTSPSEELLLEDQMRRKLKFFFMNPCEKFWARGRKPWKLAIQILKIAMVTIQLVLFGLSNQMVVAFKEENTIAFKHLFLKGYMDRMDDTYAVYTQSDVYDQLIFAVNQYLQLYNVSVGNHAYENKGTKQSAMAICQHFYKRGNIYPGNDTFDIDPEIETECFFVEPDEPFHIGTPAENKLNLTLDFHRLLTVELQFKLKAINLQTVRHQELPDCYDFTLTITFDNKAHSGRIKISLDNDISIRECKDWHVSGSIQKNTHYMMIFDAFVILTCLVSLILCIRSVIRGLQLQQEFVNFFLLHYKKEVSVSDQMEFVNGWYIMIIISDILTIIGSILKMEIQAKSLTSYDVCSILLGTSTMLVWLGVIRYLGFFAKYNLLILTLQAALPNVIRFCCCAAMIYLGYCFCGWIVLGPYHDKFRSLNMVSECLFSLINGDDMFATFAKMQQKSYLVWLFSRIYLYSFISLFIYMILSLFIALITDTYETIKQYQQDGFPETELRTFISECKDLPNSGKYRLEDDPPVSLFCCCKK
Outline: as §1

TRPML1, sequence (Q9GZU1 whole entry L15A/L16A/L577A/L578A, form open): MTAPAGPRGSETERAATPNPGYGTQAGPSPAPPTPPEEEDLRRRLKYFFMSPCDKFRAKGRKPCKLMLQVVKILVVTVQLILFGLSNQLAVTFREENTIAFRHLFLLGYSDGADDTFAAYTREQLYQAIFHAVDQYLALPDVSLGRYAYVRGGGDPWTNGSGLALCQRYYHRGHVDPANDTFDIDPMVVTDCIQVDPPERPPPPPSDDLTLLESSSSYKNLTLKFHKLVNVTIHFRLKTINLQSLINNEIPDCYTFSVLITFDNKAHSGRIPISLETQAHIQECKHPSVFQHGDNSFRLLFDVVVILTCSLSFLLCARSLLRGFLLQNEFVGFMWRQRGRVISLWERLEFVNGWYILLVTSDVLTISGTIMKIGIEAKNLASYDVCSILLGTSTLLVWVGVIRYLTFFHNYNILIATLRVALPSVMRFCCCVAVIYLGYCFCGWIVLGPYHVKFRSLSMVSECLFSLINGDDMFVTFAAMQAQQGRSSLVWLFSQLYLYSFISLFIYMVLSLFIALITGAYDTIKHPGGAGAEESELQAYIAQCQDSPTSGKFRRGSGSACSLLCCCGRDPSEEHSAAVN

Row | Compound | EC50 (TRPML1) [µM] | EC50 (TRPML2) [µM] | EC50 (TRPML3) [µM]
1 | C[C@@H]1CN(c2ncnc3c2c(-c2ccccn2)cn3-c2cc(F)cc(F)c2)CCN1C(=O)OC(C)(C)C [Compound 215, tert-butyl (R)-4-(7-(3,5-difluorophenyl)-5-(pyridin-2-yl)-7H-pyrrolo[2,3-d]pyrimidin-4-yl)-2-methylpiperazine-1-carboxylate] | 0.1 to 0.5 | 0.5 to 2 | 0.1 to 0.5
2 | C[C@@H]1CN(c2ncnc3c2c(-c2ccncc2)cn3-c2cc(F)cc(F)c2)CCN1C(=O)OC(C)(C)C [Compound 216, tert-butyl (R)-4-(7-(3,5-difluorophenyl)-5-(pyridin-4-yl)-7H-pyrrolo[2,3-d]pyrimidin-4-yl)-2-methylpiperazine-1-carboxylate] | < 0.1 | 0.5 to 2 | 0.1 to 0.5
3 | C[C@H]1CN(C(=O)OC(C)(C)C)CCN1c1ncnc2c1c(C1CC1)cn2-c1cccc(F)c1F [Compound 217, tert-butyl (S)-4-(5-cyclopropyl-7-(2,3-difluorophenyl)-7H-pyrrolo[2,3-d]pyrimidin-4-yl)-3-methylpiperazine-1-carboxylate] | 0.1 to 0.5 | 0.5 to 2 | 0.1 to 0.5
4 | C[C@H]1CN(C(=O)OC(C)(C)C)CCN1c1ncnc2c1c(C1CC1)cn2-c1cc(F)ccc1F [Compound 218, tert-butyl (S)-4-(5-cyclopropyl-7-(2,5-difluorophenyl)-7H-pyrrolo[2,3-d]pyrimidin-4-yl)-3-methylpiperazine-1-carboxylate] | < 0.1 | 0.5 to 2 | < 0.1
5 | C[C@@H]1CN(c2ncnc3c2c(C2CC2)cn3-c2cccc(Cl)c2F)CCN1C(=O)OC(C)(C)C [Compound 220, tert-butyl (R)-4-(7-(3-chloro-2-fluorophenyl)-5-cyclopropyl-7H-pyrrolo[2,3-d]pyrimidin-4-yl)-2-methylpiperazine-1-carboxylate] | < 0.1 | 0.1 to 0.5 | < 0.1
6 | C[C@@H]1CN(c2ncnc3c2c(-c2ccccn2)cn3-c2cc(F)cc(Cl)c2)CCN1C(=O)OC(C)(C)C [Compound 221, tert-butyl (R)-4-(7-(3-chloro-5-fluorophenyl)-5-(pyridin-2-yl)-7H-pyrrolo[2,3-d]pyrimidin-4-yl)-2-methylpiperazine-1-carboxylate] | < 0.1 | 0.1 to 0.5 | < 0.1
7 | C[C@@H]1CN(c2ncnc3c2c(-c2cnccn2)cn3-c2cc(F)cc(Cl)c2)CCN1C(=O)OC(C)(C)C [Compound 223, tert-butyl (R)-4-(7-(3-chloro-5-fluorophenyl)-5-(pyrazin-2-yl)-7H-pyrrolo[2,3-d]pyrimidin-4-yl)-2-methylpiperazine-1-carboxylate] | 0.1 to 0.5 | 0.5 to 2 | 0.1 to 0.5
8 | C[C@@H]1CN(c2ncnc3c2c(C2CC2)cn3-c2cc(Cl)ccc2F)CCN1C(=O)OC(C)(C)C [Compound 224, tert-butyl (R)-4-(7-(5-chloro-2-fluorophenyl)-5-cyclopropyl-7H-pyrrolo[2,3-d]pyrimidin-4-yl)-2-methylpiperazine-1-carboxylate] | < 0.1 | 0.1 to 0.5 | < 0.1
9 | C[C@H]1CN(C(=O)OC(C)(C)C)CCN1c1ncnc2c1c(N1CCOCC1)cn2-c1cc(F)cc(F)c1 [Compound 228, tert-Butyl (S)-4-(7-(3,5-difluorophenyl)-5-morpholino-7H-pyrrolo[2,3-d]pyrimidin-4-yl)-3-methylpiperazine-1-carboxylate] | 0.1 to 0.5 | 0.5 to 2 | 0.1 to 0.5
10 | C[C@@H]1CN(C(=O)OC(C)(C)C)CCN1c1ncnc2c1c(N1CCOCC1)cn2-c1cccc(Cl)c1 [Compound 229, tert-Butyl (R)-4-(7-(3-chlorophenyl)-5-morpholino-7H-pyrrolo[2,3-d]pyrimidin-4-yl)-3-methylpiperazine-1-carboxylate] | 0.5 to 2 | 0.5 to 2 | 0.1 to 0.5
11 | C[C@H]1CN(C(=O)OC(C)(C)C)CCN1c1ncnc2c1c(N1CCOCC1)cn2-c1cccc(Cl)c1 [Compound 230, tert-Butyl (S)-4-(7-(3-chlorophenyl)-5-morpholino-7H-pyrrolo[2,3-d]pyrimidin-4-yl)-3-methylpiperazine-1-carboxylate] | 0.1 to 0.5 | 0.1 to 0.5 | < 0.1
12 | C[C@@H]1CN(c2ncnc3c2c(C2CC2)cn3-c2cc(F)cc(F)c2)[C@@H](C)CN1C(=O)OC(C)(C)C [Compound 232, tert-butyl (2R,5S)-4-(5-cyclopropyl-7-(3,5-difluorophenyl)-7H-pyrrolo[2,3-d]pyrimidin-4-yl)-2,5-dimethylpiperazine-1-carboxylate] | < 0.1 | 0.5 to 2 | < 0.1
13 | C[C@@H]1CN(c2ncnc3c2c(-c2cnccn2)cn3-c2cc(F)cc(F)c2)CCN1C(=O)OC(C)(C)C [Compound 233, tert-butyl (R)-4-(7-(3,5-difluorophenyl)-5-(pyrazin-2-yl)-7H-pyrrolo[2,3-d]pyrimidin-4-yl)-2-methylpiperazine-1-carboxylate] | 0.5 to 2 | 0.5 to 2 | 0.1 to 0.5

Now from value to compound:

Row | EC50 (TRPML1) [µM] | EC50 (TRPML2) [µM] | EC50 (TRPML3) [µM] | Compound
14 | 0.1 to 0.5 | 0.5 to 2 | 0.1 to 0.5 | C[C@H]1CN(C(=O)OC(C)(C)C)CCN1c1ncnc2c1c(-c1cccnc1)cn2-c1cc(F)cc(F)c1 [Compound 213, tert-butyl-(S)-4-(7-(3,5-difluorophenyl)-5-(pyridin-3-yl)-7H-pyrrolo[2,3-d]pyrimidin-4-yl)-3-methylpiperazine-1-carboxylate]
15 | 0.1 to 0.5 | 0.5 to 2 | 0.1 to 0.5 | C[C@@H]1CN(c2ncnc3c2c(-c2cccnc2)cn3-c2cc(F)cc(F)c2)CCN1C(=O)OC(C)(C)C [Compound 214, tert-butyl (R)-4-(7-(3,5-difluorophenyl)-5-(pyridin-3-yl)-7H-pyrrolo[2,3-d]pyrimidin-4-yl)-2-methylpiperazine-1-carboxylate]
16 | < 0.1 | 0.1 to 0.5 | < 0.1 | C[C@H]1CN(C(=O)OC(C)(C)C)CCN1c1ncnc2c1c(C1CC1)cn2-c1ccc(F)c(F)c1 [Compound 219, tert-butyl (S)-4-(5-cyclopropyl-7-(3,4-difluorophenyl)-7H-pyrrolo[2,3-d]pyrimidin-4-yl)-3-methylpiperazine-1-carboxylate]
17 | < 0.1 | 0.5 to 2 | < 0.1 | C[C@@H]1CN(c2ncnc3c2c(-c2cccnc2)cn3-c2cc(F)cc(Cl)c2)CCN1C(=O)OC(C)(C)C [Compound 222, tert-butyl (R)-4-(7-(3-chloro-5-fluorophenyl)-5-(pyridin-3-yl)-7H-pyrrolo[2,3-d]pyrimidin-4-yl)-2-methylpiperazine-1-carboxylate]
18 | < 0.1 | 0.1 to 0.5 | < 0.1 | C[C@H]1CN(C(=O)OC(C)(C)C)CCN1c1ncnc2c1c(-c1cccnc1)cn2-c1cccc(Cl)c1 [Compound 225, tert-butyl (S)-4-(7-(3-chlorophenyl)-5-(pyridin-3-yl)-7H-pyrrolo[2,3-d]pyrimidin-4-yl)-3-methylpiperazine-1-carboxylate]
19 | 0.1 to 0.5 | 0.5 to 2 | 0.1 to 0.5 | C[C@H]1CN(C(=O)OC(C)(C)C)CCN1c1ncnc2c1c(-c1cccnc1)cn2-c1cccc(F)c1 [Compound 226, tert-butyl (S)-4-(7-(3-fluorophenyl)-5-(pyridin-3-yl)-7H-pyrrolo[2,3-d]pyrimidin-4-yl)-3-methylpiperazine-1-carboxylate]
20 | < 0.1 | 0.1 to 0.5 | < 0.1 | C[C@H]1CN(C(=O)OC(C)(C)C)CCN1c1ncnc2c1c(-c1ccccc1F)cn2-c1ccccn1 [Compound 231, tert-butyl (S)-4-(5-(2-fluorophenyl)-7-(pyridin-2-yl)-7H-pyrrolo[2,3-d]pyrimidin-4-yl)-3-methylpiperazine-1-carboxylate]
